The source of these data is patent publication US20100168137A1, “COMBINATION FOR USE IN THE TREATMENT OF INFLAMMATORY DISORDERS” (priority 2006, published 2010).

Test [1] deals with Platelet derived growth factor, alpha (PDGFa). Kind of test: PDGFa gene expression (microarray) in balloon-injured rat carotid artery. Format: in vivo. As to conditions: for effect on PDGFa gene expression (in words): 5 mg/kg of each drug s.c. 60 minutes before injury, 8 hours after injury, versus saline control; for mean PDGFa signal intensity: male Sprague-Dawley rats, 5 mg/kg of each drug s.c. 60 minutes before carotid balloon injury, tissue taken 8 hours after injury, 3 rats per group, saline control 528.

For test [2], the system named is Macrophage inflammatory protein-2 (MIP-2), also designated chemokine (C-X-C motif) ligand 2 (CXCL2). Description: MIP-2 gene expression (microarray) in balloon-injured rat carotid artery. The settings on record: for effect on MIP-2 gene expression (in words): 5 mg/kg of each drug s.c. 60 minutes before injury, 8 hours after injury, versus saline control; for mean MIP-2 signal intensity: male Sprague-Dawley rats, 5 mg/kg of each drug s.c. 60 minutes before carotid balloon injury, tissue taken 8 hours after injury, 3 rats per group, saline control 203. The class given is in vivo.

The subject of a further test is MonoMac-6 (MM6) cells. Kind of test: MonoMac-6 macrophage proliferation (WST-1 reagent). As to conditions: 48 hours; for inhibitory effect on MM6 proliferation at 10 μM (in words): WST-1, n=5, data not shown; for inhibition at 100 µM: Homo sapiens, MONO-MAC-6, 100 μM final concentration of each drug, WST-1, mean value n=5, versus untreated cells. The class given is cell-based, human. As for the experimental part: Cells from the human macrophage cell-line MonoMac-6 (MM6) (Ziegler-Heitbrock et al, Int. J. Cancer, 41, 456 (1988)) were cultured (37° C./5% CO2) in RPMI-1640 medium supplemented with 1 mM sodium pyruvate, 1×nonessential amino acids, 1-100 μg/mL insulin, 1 mM oxalacetic acid, 100 units/mL penicillin, 100 μg/mL streptomycin and 10% (v/v) fetal bovine serum. At the start of the experiment, MM6 cells were seeded in 96-well plates at a density of 1×10^5 cells/mL (100 μl per well). Proliferation of the MM6 cells was measured using the Cell Proliferation Reagent WST-1 (Roche Diagnostics Scandinavia AB, Bromma, Sweden) or by cell counting using a microscope. The WST-1 reagent is designed to be used for spectrophotometric quantification of e.g. cell growth in proliferation assays and was used according to the manufacturers' instructions. […] Stock solutions of pemirolast (potassium salt purchased from American Custom Chemicals Corporation, San Diego, USA) and ramatroban (purchased from Cayman Chemical, Ann Arbor, Mich., USA as free acid and transferred into sodium salt by adding one equivalent of aqueous NaOH) were made in sterile saline.
The effects of pemirolast and/or ramatroban (added at the start of the experiments) on MM6 cell proliferation were studied 48 hours after start of the experiments using the WST-1 reagent described above.
(Formazan colour is commonly taken as a measure of viable cells.)

Turning to `O=C(O)CCn1c2c(c3ccccc31)C[C@H](NS(=O)(=O)c1ccc(F)cc1)CC2` [ramatroban], in test [1], the “effect on PDGFa gene expression (in words)” value was “did not reduce PDGFa gene expression levels” and the “mean PDGFa signal intensity” value was 566. In test [2], the “effect on MIP-2 gene expression (in words)” value was “did not reduce MIP-2 gene expression levels” and the “mean MIP-2 signal intensity” value amounted to 326. Also, in the test with MonoMac-6 (MM6) cells, the “inhibitory effect on MM6 proliferation at 10 μM (in words)” value is “less that that of 100 μM of ramatroban” and the inhibition at 100 µM came to 16.8%.
For `Cc1cccn2c(=O)c(-c3nnn[nH]3)cnc12` [pemirolast], in test [1], the “effect on PDGFa gene expression (in words)” value is listed as “did not reduce PDGFa gene expression levels” and the “mean PDGFa signal intensity” value is reported as 800. Moreover, in test [2], the “effect on MIP-2 gene expression (in words)” value is given as “did not reduce MIP-2 gene expression levels” and the “mean MIP-2 signal intensity” value was 710. Moreover, in the test with MonoMac-6 (MM6) cells, the “inhibitory effect on MM6 proliferation at 10 μM (in words)” value was “very similar to that of 100 μM of pemirolast” and 100 µM produced 9.4% inhibition.

The term inhibition denotes how much of the control response was suppressed.
